Test results published in PubChem BioAssay AID2060600 (Molecular Pharmacology Branch, DTP, NCI, 2025).

Test system: 996289-038-R-J1-PDC complex spheroid viability
Assay: Anticancer human tumor 996289-038-R-J1-PDC patient-derived colon adenocarcinoma cell line growth inhibition [CLK]
Settings: for IC50: curve of first compound; for viability, T/C: stronger effect = lower value
Source text: A high-throughput screen of multi-cell type tumor spheroids was designed to identify active combinations of […] and targeted small molecules. Complex spheroids include a stromal component modeled by human endothelial cells (HUVEC) and fibroblasts modeled by human mesenchymal stem cells (MSCs). The concentration ranges selected for each drug and investigational agent were based upon clinically achievable concentrations if the clinical Cmax of the agent was known.
Compounds. The drugs and investigational agents: cirtuvivint (SM08502; NSC835563), CC-671 (NSC850746), vemurafenib (NSC761431), tapotoclax (NSC804041), sotorasib (NSC818433), adagrasib (NSC831453), MRTX-1133 (NSC836407), BAY2416964 (NSC825713), copanlisib (NSC816437), inavolisib (NSC800729), abemaciclib (NSC768073), osimertinib (NSC779217), entinostat (NSC756642), eltanexor (KPT-8602, NSC794443), venetoclax (NSC766270), ceralasertib (NSC777638), bortezomib (NSC756655), olaparib (NSC753686), talazoparib (NSC767125), alisertib (NSC759677), peposertib (NSC802822), gemcitabine (NSC613327), 5-fluorouracil (NSC19893), SN-38 (NSC673596), oxaliplatin (NSC266046), paclitaxel (NSC125973), and doxorubicin (NSC123127), were obtained from the National Cancer Institute (NCI) Developmental Therapeutics Program Chemical Repository. The FDA-approved anticancer drug set is available from the Developmental Therapeutics Program at https://dtp.cancer.gov/organization/dscb/obtaining/available plates.htm. […] The stock solutions were prepared in dimethyl sulfoxide (DMSO, Sigma-Aldrich, St. Louis, MO, cat. D2650), except for the platinum complexes which were prepared in saline (Quality Biological, Gaithersburg, MD, cat. 114-055-101), at 800-fold the tested concentration and stored at -70 degrees C prior to their use. All drugs and investigational agents were tested over a range starting from a high concentration at or near the clinical Cmax and decreasing in half-log increments. If the clinical Cmax for an agent had not been determined, the highest concentration tested was 10 microM.
Cell Culture. All cells were maintained in an incubator at 37 degrees C and 5% CO2 with 95% humidity. The PDC lines were cultured according to standard operating procedures established by the NCI PDMR. Briefly, all PDCs were thawed and cultured in Matrigel-coated flasks prepared with a working solution of 1X Ham's F-12 nutrient mix, without supplementation (Invitrogen, Waltham, MA, cat. 11765054), 100 U/mL penicillin-streptomycin (Invitrogen, cat. 15140122), and 2.5% Matrigel (Corning Inc., Corning, NY, cat. 354248) for the first three passages. The 947758-054-R-J2-PDC line was cultured in 6B/Colon 1A media, which includes advanced DMEM/F-12 (Thermo Fisher Scientific, cat. 12634028), 10 mM HEPES (Thermo Fisher Scientific, cat. 15630080), 1X GlutaMAX supplement (Thermo Fisher Scientific, cat. 35050061), 0.1 mg/mL primocin (InvivoGen, cat. ant-pm-2), 10% defined fetal bovine serum, heat inactivated (HyClone Laboratories Inc., cat. SH30070.03HI), 1.25 mM N-Acetyl-L-cysteine (Sigma-Aldrich, cat. A9165), 10 mM nicotinamide (Sigma-Aldrich, cat. N0636), 1X B-27 supplement (Thermo Fisher Scientific, cat. 17504044), 1X N-2 supplement (Thermo Fisher Scientific, cat. 17502048), and 10 microM Y-27632 dihydrochloride (Tocris Bioscience, cat. 1254). The 876862-298-R-J1-PDC was cultured in 6E media, which includes all 6B/Colon 1A media components plus 50% L-WRN conditioned media (ATCC, cat. CRL-3276), 50 ng/mL recombinant human EGF recombinant protein (hEGF; Thermo Fisher Scientific, cat. PHG0311), 10 ng/mL recombinant human fibroblast growth factor 10 (hGFG-10; PeproTech, cat. 100-26), 1 ng/mL recombinant human fibroblast growth factor 2 (hFGF-2; PeproTech, cat. 100-18B), and 1 µM prostaglandin E2 (PGE2; Tocris, cat. 2296). The 227483-062-R1-J1-PDC line was cultured in Panc media, containing all 6E components except hFGF-2, with the addition of 500 nM SB-431542 (Selleckchem, cat. S1067) and 10 nM gastrin (Tocris, cat. 3006). […]

[1] = second compound 0.0316 µM, first compound 0.0316 µM
[2] = second compound 0.0316 µM, first compound 0.1 µM
[3] = second compound 0.0316 µM, first compound 0.316 µM
[4] = second compound 0.0316 µM, first compound 1 µM
[5] = second compound 0.1 µM, first compound 0.0316 µM
[6] = second compound 0.1 µM, first compound 0.1 µM
[7] = second compound 0.1 µM, first compound 0.316 µM
[8] = second compound 0.1 µM, first compound 1 µM
[9] = second compound 0.316 µM, first compound 0.0316 µM
[10] = second compound 0.316 µM, first compound 0.1 µM
[11] = second compound 0.316 µM, first compound 0.316 µM
[12] = second compound 0.316 µM, first compound 1 µM
[13] = second compound 1 µM, first compound 0.0316 µM
[14] = second compound 1 µM, first compound 0.1 µM
[15] = second compound 1 µM, first compound 0.316 µM
[16] = second compound 1 µM, first compound 1 µM
[17] = second compound 3.16 µM, first compound 0.0316 µM
[18] = second compound 3.16 µM, first compound 0.1 µM
[19] = second compound 3.16 µM, first compound 0.316 µM
[20] = second compound 3.16 µM, first compound 1 µM
[21] = second compound 10 µM, first compound 0.0316 µM
[22] = second compound 10 µM, first compound 0.1 µM
[23] = second compound 10 µM, first compound 0.316 µM
[24] = second compound 10 µM, first compound 1 µM
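Also: spheroids exposed to the agents for 7 days before readout.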

C=C(F)C(=O)N1CCN(c2nc(OCC3CCCN3C)nc3c2CCN(c2cccc4cccc(Cl)c24)C3)CC1CC#N (centres undefined) + CN1CCN(c2cc(C(=O)Nc3cc4cc(-c5cnn(C)c5)ccc4cn3)ccn2)CC1
IC50 (second compound 0.0316 µM): 4600 nM | IC50 (second compound 0.1 µM): 4410 nM | IC50 (second compound 0.316 µM): 2880 nM | IC50 (second compound 1 µM): < 31.6 nM | IC50 (second compound 3.16 µM): < 31.6 nM | IC50 (second compound 10 µM): < 31.6 nM | viability, T/C [1]: 98.2% | viability, T/C [2]: 119% | viability, T/C [3]: 97.9% | viability, T/C [4]: 104% | viability, T/C (second compound 0.0316 µM, first compound 3.16 µM): 73.4% | viability, T/C (second compound 0.0316 µM, first compound 10 µM): 1.4% | viability, T/C [5]: 97.1% | viability, T/C [6]: 97.5% | viability, T/C [7]: 101% | viability, T/C [8]: 95.5% | viability, T/C (second compound 0.1 µM, first compound 3.16 µM): 70.1% | viability, T/C (second compound 0.1 µM, first compound 10 µM): 0.64% | viability, T/C [9]: 66.5% | viability, T/C [10]: 79.6% | viability, T/C [11]: 70.9% | viability, T/C [12]: 64.8% | viability, T/C (second compound 0.316 µM, first compound 3.16 µM): 48.9% | viability, T/C (second compound 0.316 µM, first compound 10 µM): 0.51% | viability, T/C [13]: 6.67% | viability, T/C [14]: 6.95% | viability, T/C [15]: 6.76% | viability, T/C [16]: 6.89% | viability, T/C (second compound 1 µM, first compound 3.16 µM): 1.53% | viability, T/C (second compound 1 µM, first compound 10 µM): 0.54% | viability, T/C [17]: 0.79% | viability, T/C [18]: 0.78% | viability, T/C [19]: 1.18% | viability, T/C [20]: 0.87% | viability, T/C (second compound 3.16 µM, first compound 3.16 µM): 1.8% | viability, T/C (second compound 3.16 µM, first compound 10 µM): 0.29% | viability, T/C [21]: 0.4% | viability, T/C [22]: 0.7% | viability, T/C [23]: 1.4% | viability, T/C [24]: 0.36% | viability, T/C (second compound 10 µM, first compound 3.16 µM): 0.43% | viability, T/C (second compound 10 µM, first compound 10 µM): 0.8%

CCc1c2c(nc3ccc(O)cc13)-c1cc3c(c(=O)n1C2)COC(=O)[C@]3(O)CC + CN1CCN(c2cc(C(=O)Nc3cc4cc(-c5cnn(C)c5)ccc4cn3)ccn2)CC1
IC50 (second compound 0.0316 µM): 126 nM | IC50 (second compound 0.1 µM): 58.6 nM | IC50 (second compound 0.316 µM): 16.6 nM | IC50 (second compound 1 µM): < 3.16 nM | IC50 (second compound 3.16 µM): < 3.16 nM | IC50 (second compound 10 µM): < 3.16 nM | viability, T/C (second compound 0.0316 µM, first compound 0.00316 µM): 89.7% | viability, T/C (second compound 0.0316 µM, first compound 0.01 µM): 79.2% | viability, T/C [1]: 57.2% | viability, T/C [2]: 56.6% | viability, T/C [3]: 43% | viability, T/C [4]: 26.9% | viability, T/C (second compound 0.1 µM, first compound 0.00316 µM): 91% | viability, T/C (second compound 0.1 µM, first compound 0.01 µM): 70.7% | viability, T/C [5]: 55.6% | viability, T/C [6]: 44.8% | viability, T/C [7]: 33.8% | viability, T/C [8]: 19.5% | viability, T/C (second compound 0.316 µM, first compound 0.00316 µM): 57.9% | viability, T/C (second compound 0.316 µM, first compound 0.01 µM): 51.2% | viability, T/C [9]: 46.2% | viability, T/C [10]: 35% | viability, T/C [11]: 17.7% | viability, T/C [12]: 6.98% | viability, T/C (second compound 1 µM, first compound 0.00316 µM): 6.14% | viability, T/C (second compound 1 µM, first compound 0.01 µM): 5.27% | viability, T/C [13]: 2.85% | viability, T/C [14]: 1.7% | viability, T/C [15]: 3.66% | viability, T/C [16]: 5.38% | viability, T/C (second compound 3.16 µM, first compound 0.00316 µM): 1.13% | viability, T/C (second compound 3.16 µM, first compound 0.01 µM): 0.73% | viability, T/C [17]: 1.24% | viability, T/C [18]: 1.43% | viability, T/C [19]: 3.98% | viability, T/C [20]: 8.54% | viability, T/C (second compound 10 µM, first compound 0.00316 µM): 1.3% | viability, T/C (second compound 10 µM, first compound 0.01 µM): 2.51% | viability, T/C [21]: 0.56% | viability, T/C [22]: 0.63% | viability, T/C [23]: 0.8% | viability, T/C [24]: 3.96%
